Data from US6420428B1, “Treatment and prevention of hepatic disorders” (The Regents of the University of California, priority 1996, dated 2002).
Entries after “also recorded” stand apart in the source; their conditions may differ.

Columns and labels:
[1] = system: hepatic stellate cells; test: Activation of cultured hepatic stellate cells (α-SMA immunohistochemistry); type: cell-based, Sprague-Dawley rats; details: for effect on stellate cell activation / increased α-SMA expression induced by collagen type I matrix: cultured on collagen type I matrix
Method: Stellate cells were prepared from male Sprague-Dawley (400-500 grams) rats (Charles River Breeding Labs) by in situ perfusion of the liver and single-step density Nycodenz® gradient (Accurate Chemical & Scientific Corp.). [See Bedossa et al., Hepatology 19(5):1262-71 (1994); Brenner et al., Mol. Biol. Med. 7:105-15 (1990)]. The cells were mixed with 9.5 mL Hank's buffer containing 3 g/L BSA and 8 mL of 28.7% (w/v) Nycodenz® in sodium-free Hank's buffer. The gradient was generated by placing 6 mL of the Hank's/BSA solution on top of the liver cell mixture in a 50 mL centrifugation tube. […] For TGFα-induced stellate cell activation, cells were cultured on plastic in serum-free defined media (Fibroblast basal medium with Insulin, Clonetics). Fibroblast basal medium is similar to F12 medium, but contains folinic acid, Hepes buffer with NaOH, MgSO4, and adenine instead of folic acid, NaHCO3, MgCl2 and hypoxanthine. Cells were plated on 60-mm dishes coated with collagen type 1, EHS matrix (Matrigel; Collaborative Bio-medical Products) or plastic (according to the experimental design), for the initial seeding of fat-storing cells at a density of 2-3×10^6. Matrigel's major components are […], collagen IV, proteoglycans, entactin and nidogen; it also contains:TGFβ, fibroblast growth factor, and tissue plasminogen activator. […] Medium was changed every 24 h for all conditions. The sequences of c-myb oligonucleotide phosphorothioate were: sense ([NT] ID NO:3) and antisense ([NT] ID NO:4). Stellate cells were identified by their typical autofluorescence at 328 nm excitation wavelength, staining of lipid droplets by oil red, and immunohistochemistry with a monoclonal antibody against desmin. [Bedossa et al., Hepatology 19(5):1262-71 (1994)]. Cells, fixed with acetone:methanol (50:50) at -20° C. for 20 min., and liver tissue were immunostained as described, e.g., by Buck et al., EMBO J. 13:851-60 (1994). Antibodies directed against c-myb, NFkB65, α-SMA, or PCNA were obtained from Sigma, 5 Prime 3 Prime, and Oncogene Sciences. Fluorescent labels were visualized using a dual channel Zeiss microscope and a computer imaging system (Image 1 software). A phase-contrast microscope was utilized to visualize antigens with alkaline phosphatase secondary antibodies (Vector Laboratories). Cytochromes utilized were alkaline phosphatase with fast green as counterstain, and FITC with Evans blue as counterstain (Sigma). The number of PCNA (+), c-myb(+), or NFkB(+), α-SMA(+) cells was expressed as a percentage of total cells. At least 1,000 cells were analyzed for each experimental point, and a minimum of two observers analyzed each immunohistochemical experiment independently. Negative control samples were processed in parallel under the same conditions, but with omission of the first antibody. The role of lipid peroxidation on stellate cell activation was examined. Stellate cell activation was induced in quiescent cells growing on a EHS matrix; inhibition of this phenotype was evaluated with cells activated by collagen type I matrix. [See Davis et al., J. Biol. Chem. 262:10280-86 (1987)]. When stellate cell activation was induced by TGFα as described, e.g., by Pinzani et al., J. Clin. […] Stellate cell activation was assessed by the expression of α-SMA (as described in Example 1) and S-phase by the presence of PCNA. [Bravo et al., Nature (Lond.) 326:515-17 (1987)]. […] SEM<30% of the mean for all conditions).

[2] = system: hepatic stellate cells; test: Proliferation of cultured hepatic stellate cells (nuclear expression of PCNA, S-phase); type: cell-based, Sprague-Dawley rats; details: for effect on stellate cell cycle activation (PCNA) induced by collagen type I matrix or TGFα: 50 μM
Method: Stellate cells were prepared from male Sprague-Dawley (400-500 grams) rats (Charles River Breeding Labs) by in situ perfusion of the liver and single-step density Nycodenz® gradient (Accurate Chemical & Scientific Corp.). […] The cells were mixed with 9.5 mL Hank's buffer containing 3 g/L BSA and 8 mL of 28.7% (w/v) Nycodenz® in sodium-free Hank's buffer. The gradient was generated by placing 6 mL of the Hank's/BSA solution on top of the liver cell mixture in a 50 mL centrifugation tube. After centrifugation (1000 g, 4° C., 20 min) the cells were aspirated from above the interface and washed twice in serum-free DME regular glucose medium.
Thereafter, the cells were cultured under an atmosphere of 5% CO2, 95% air in tissue culture dishes using DME medium containing penicillin G 100 units/mL, streptomycin sulfate 100 μg/mL and 10% fetal calf serum. For TGFα-induced stellate cell activation, cells were cultured on plastic in serum-free defined media (Fibroblast basal medium with Insulin, Clonetics). Fibroblast basal medium is similar to F12 medium, but contains folinic acid, Hepes buffer with NaOH, MgSO4, and adenine instead of folic acid, NaHCO3, MgCl2 and hypoxanthine. Cells were plated on 60-mm dishes coated with collagen type 1, EHS matrix (Matrigel; Collaborative Bio-medical Products) or plastic (according to the experimental design), for the initial seeding of fat-storing cells at a density of 2-3×10^6. […]
The number of PCNA (+), c-myb(+), or NFkB(+), α-SMA(+) cells was expressed as a percentage of total cells. At least 1,000 cells were analyzed for each experimental point, and a minimum of two observers analyzed each immunohistochemical experiment independently. […]
The role of lipid peroxidation on stellate cell activation was examined. Stellate cell activation was induced in quiescent cells growing on a EHS matrix; inhibition of this phenotype was evaluated with cells activated by collagen type I matrix. […] Stellate cell activation was assessed by the expression of α-SMA (as described in Example 1) and S-phase by the presence of PCNA.

[3] = cited from earlier work
[4] = system: cultured stellate cells; details: cited from earlier work
[5] = biological target: T1, 5-lipoxygenase (Homo sapiens, UniProt P09917); details: cited from earlier work
T1 sequence (P09917 1-674): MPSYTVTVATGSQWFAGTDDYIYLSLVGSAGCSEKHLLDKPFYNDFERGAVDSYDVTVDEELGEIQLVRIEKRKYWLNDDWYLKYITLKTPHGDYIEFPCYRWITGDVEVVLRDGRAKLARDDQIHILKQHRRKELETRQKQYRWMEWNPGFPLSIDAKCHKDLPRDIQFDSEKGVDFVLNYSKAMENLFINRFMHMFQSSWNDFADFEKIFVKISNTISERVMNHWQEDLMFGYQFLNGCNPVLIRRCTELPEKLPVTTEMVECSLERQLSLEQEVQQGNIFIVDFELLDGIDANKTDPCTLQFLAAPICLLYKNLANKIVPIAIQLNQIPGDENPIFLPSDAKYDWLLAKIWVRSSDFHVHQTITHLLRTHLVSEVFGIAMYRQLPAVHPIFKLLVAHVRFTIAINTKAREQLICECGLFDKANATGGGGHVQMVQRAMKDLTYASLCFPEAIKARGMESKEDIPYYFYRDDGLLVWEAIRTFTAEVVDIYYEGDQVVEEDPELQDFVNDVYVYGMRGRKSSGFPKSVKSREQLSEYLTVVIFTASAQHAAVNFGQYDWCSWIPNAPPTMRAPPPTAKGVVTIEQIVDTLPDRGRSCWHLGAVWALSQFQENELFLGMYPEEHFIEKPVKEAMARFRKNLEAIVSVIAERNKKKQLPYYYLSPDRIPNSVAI

[6] = system: fatty acid cyclooxygenase; details: cited from earlier work
[7] = system: human polymorphonuclear leukocytes; details: stimulated with calcium ionophore A23187; cited from earlier work
[8] = system: phospholipase A2; details: cited from earlier work
[9] = system: fibrogenesis cascade in the liver of patients with chronic hepatitis C; test: Liver biopsy immunohistochemistry and in situ hybridization in patients with chronic hepatitis C; type: in vivo, human; details: 8 weeks
Method: Antisera to MDA-lysine adducts were prepared by a variation of the technique described by Houglum et al., J Clin Invest 86:1991-98 (1990). Briefly, rabbit LDS was purified and modified with MDA, and the modified autologous LDL was used to immunize rabbits.
Sections from paraffin-embedded blocks were deparaffinized, passed through graded series of alcohol, rehydrated in PBS, and stained with hematoxylin and eosin. Immunohistochemistry was performed using the avidin-biotin complex-alkaline phosphatase, peroxidase systems (Vector Laboratories, ABC-peroxidase system) or fluorescein. Sections were immunostained with antibodies specific for MDA-protein adducts, α-smooth muscle actin (Sigma), or c-myb.
The antisera was used with fluorochrome-conjugated secondary antibodies. Fluorescent labels were visualized using a dual filter Zeiss microscope, while a phase-contrast microscope was used to visualize antigens with hematoxilin/eosin or alkaline phosphatase secondary antibodies.
Hybridization, RNase digestion of mismatched sequences, and immunological detection of the digoxigenin-labeled RNA probes were performed as described by Houglum et al., Am. […] Briefly, single stranded RNA probes in both sense and antisense orientations were transcribed in vitro from the plasmid pHuCol, which contains a 300 base pair cDNA fragment of the human collagen α1(I) gene, and labeled with digoxigenin-11-UTP. […] For the labelling procedure, 2 μg of linearized plasmid were transcribed in a 30 μL reaction volume containing 40 mM tris(hydroxymethyl)aminomethane (Tris).HCl, pH 7.9; 6 mM MgCl2; 2 mM apermidine.HCl; 10 mM dithiothreitol, 10 mM ATP, CTP, and GTP; 6.5 mM UTP; and 3.5 mM digoxigenin-11-UTP with 309 units of T3 or T7 DNA polymerase. The specificity of the probe was assessed by in situ hybridization of human skin. All sections were processed using same batches of probe and reagents and using sense and antisense in parallel.

[10] = Plasma d-α-tocopherol by high pressure chromatography in patients; type: in vivo, human; details: 1,200 IU/day orally for 8 weeks; before treatment 9.6±4.3; P<0.003
From the text: (§1) Patients with chronic active hepatitis C and severe necro-inflammatory changes without cirrhosis (as established by liver biopsy) were studied at the University of California San Diego Liver Clinic. Six patients (2 women and 4 men; 47±8 years) who had not responded to interferon α-2b therapy (i.e., who were refractory) and with no other co-morbid illnesses received 1,200 IU/day of d-α-tocopherol orally for 8 weeks. On completion of the study, all patients underwent a liver biopsy; liver sections from patients with chronic hepatitis C and from individuals without liver disease were provided by Dr. C. Behling at UCSD.
(§2) Liver tissue obtained from biopsies was studied, as described below, by immunohistochemistry and in situ hybridization with specific riboprobes. Carbonyl modifications were assayed in plasma proteins, as an index of oxidative stress. [Palinski et al., Arteriosclerosis 10:325-35 (1990)]. Serum alanine aminotransferase (ALT) was determined with a (Hitachi) analyzer, plasma d-α-tocopherol by high pressure chromatography, and HCV RNA by quantitative PCR. [See U.S. Pat. Nos. 4,683,202 and 4,683,195, hereby incorporated by reference].

[11] = Carbonyl modifications of plasma proteins (index of oxidative stress) in patients; type: in vivo, human; details: 1,200 IU/day, 8 weeks; before treatment 2.7±0.4; P<0.001
From the text: as §1, §2

[12] = system: HCV; test: HCV RNA by quantitative PCR in patients; type: in vivo, human; details: 1,200 IU/day, 8 weeks
From the text: as §1, §2

[13] = system: collagen expression; details: injected into mice; cited from earlier work
[14] = nutritional- or CCl4-induced injury; cited from earlier work
[15] = system: chronic hepatitis B or C; details: in vivo; cited from earlier work
[16] = system: cyclooxygenase; details: cited from earlier work
[17] = biological target: T1, 5-lipoxygenase; details: cited from earlier work; remark: listed apart in the source
[18] = in vivo; cited from earlier work

Molecule: Cc1cc(C(C)(C)C)c(O)c(C(C)(C)C)c1 [BHT, 2,6-Bis(1,1-dimethylethyl)-4-methylphenol]
- effect on stellate cell activation / increased α-SMA expression induced by collagen type I matrix ([1]; 50 μM): blocked the induction of stellate cell activation by collagen type I matrix; also recorded: abolished
- effect on stellate cell cycle activation (PCNA) induced by collagen type I matrix or TGFα [2]: blocked the activation of the stellate cell cycle
- solubility in alcohols ([3]; alcohols like ethanol and isopropanol): soluble
- solubility in water ([3]; water): insoluble

Molecule: NC1=NN(c2cccc(C(F)(F)F)c2)CC1 [BW-755c]
- inhibition of activation and collagen expression/production [4]: success in inhibiting activation and collagen production

Molecule: CC(C)(C)c1cc(C=C2SCNC2=O)cc(C(C)(C)C)c1O [LY-178002, 5-{[3,5-bis(1,1-dimethylethyl)-4-hydroxyphenyl]methylene}-4-thiazolidine]
- enzymatic activity of 5-lipoxygenase [5]: inhibit
- enzymatic activity of fatty acid cyclooxygenase [6]: inhibit
- leukotriene B4 production [7]: inhibit leukotriene B4 production
- enzymatic activity of phospholipase A2 [8]: inhibit

Molecule: CN1CSC(=Cc2cc(C(C)(C)C)c(O)c(C(C)(C)C)c2)C1=O [LY-256548, 5-{[3,5-bis(1,1-dimethylethyl)-4-hydroxyphenyl]methylene}-4-N-methylthiazolidine]
- enzymatic activity of 5-lipoxygenase [5]: inhibit
- enzymatic activity of fatty acid cyclooxygenase [6]: inhibit
- leukotriene B4 production [7]: inhibit leukotriene B4 production
- enzymatic activity of phospholipase A2 [8]: inhibit

Molecule: Cc1c(C)c2c(c(C)c1O)CC[C@@](C)(CCC[C@H](C)CCC[C@H](C)CCCC(C)C)O2 [d-α-tocopherol]
- effect on stellate cell activation / increased α-SMA expression induced by collagen type I matrix ([1]; 50 μM): blocked the induction of stellate cell activation by collagen type I matrix; also recorded: abolished
- effect on stellate cell cycle activation (PCNA) induced by collagen type I matrix or TGFα [2]: blocked the activation of the stellate cell cycle
- expression of c-myb in stellate cells ([9]; 1,200 IU/day orally): diminished expression of c-myb in stellate cells
- stellate cell activation (α-SMA) in liver sections ([9]; 1,200 IU/day orally): lesser degree of stellate cell activation
- expression of collagen α1(I) mRNA in stellate cells ([9]; 1,200 IU/day orally, in situ hybridization): lower expression of collagen al(I) mRNA in stellate cells
- MDA-adducts in liver sections ([9]; 1,200 IU/day orally, patients refractory to interferon): decreased MDA-adducts
- effect on histologic degree of hepatocellular inflammation ([9]; 1,200 IU/day): did not significantly affect
- plasma levels of d-α-tocopherol after treatment [10]: 27±6.8
- carbonyl modified plasma proteins after treatment [11]: 1.5 ± 0.4 µmol/mL
- effect on HCV titres [12]: did not significantly affect
- collagen expression by the skin [13]: did not inhibit collagen expression by the skin
- collagen expression in the liver and tendons [13]: decreases collagen expression in the liver and tendons
- hepatocellular necrosis [14]: ameliorate hepatocellular necrosis

Molecule: O=CCC=O [malondialdehyde]
- activation of hepatic stellate cells on EHS matrix ([1]; 50 μM, data not shown): able to activate stellate cells, but to a lesser extent
- activation of hepatic stellate cells on EHS matrix ([1]; 200 μM): markedly stimulated the activation of hepatic stellate cells
- cells (+) for α-SMA ([1]; stellate cells cultured on plastic, 58% without malondialdehyde, P<0.05): 93%
- stellate cell entry into S-phase ([2]; 200 μM, EHS matrix): stimulated stellate cell entry into S-phase

Molecule: CC(C)(Sc1cc(C(C)(C)C)c(O)c(C(C)(C)C)c1)Sc1cc(C(C)(C)C)c(O)c(C(C)(C)C)c1 [probucol]
- inhibition of activation and collagen expression/production [4]: success in inhibiting activation and collagen production

Molecule: CCCOC(=O)c1cc(O)c(O)c(O)c1 [propyl gallate]
- inhibition of activation and collagen expression/production [4]: success in inhibiting activation and collagen production

Molecule: CCCCC[C@H](O)/C=C/[C@H]1[C@H](O)CC(=O)[C@@H]1C/C=C\CCCC(=O)O [prostaglandin E2]
- hepatocellular necrosis [14]: ameliorate hepatocellular necrosis

Molecule: NC(=O)c1ncn([C@@H]2O[C@H](CO)[C@@H](O)[C@H]2O)n1 [ribovirin]
- effectiveness [15]: neither has been shown to be very effective

Molecule: C#CCCCC(=O)c1cc(C(C)(C)C)c(O)c(C(C)(C)C)c1 [tebufelone, 4-(5′-hexynoyl)-2,6-di-tert-butylphenol]
- cyclooxygenase inhibition [16]: reversibly inhibits
- 5-lipoxygenase inhibition [17]: reversibly inhibits

Molecule: interferon alpha
- patients requiring discontinuance or dosing adjustment [18]: 20-50%
